Data taken from US20240140938A1, “PREPARATION OF TETRAHYDROINDAZOLE DERIVATIVES AS NOVEL DIACYLGLYCERIDE O-ACYLTRANSFERASE 2 INHIBITORS” (MERCK SHARP & DOHME LLC, priority 2020, published 2024).

Molecular target: human DGAT2 (hDGAT2) (Homo sapiens (Human), UniProt Q96PD7)
Assay: DGAT2 Enzymatic Activity Assay
Assay type: biochemical
Details: hDGAT2 Sf-9 membrane prep, 13C18-triolein product by LC/MS/MS
Procedure: Sf-9 insect cells were maintained in Grace's insect cell culture medium with 10% heated-inactivated fetal bovine serum, 1% Pluronic F-68 and 0.14 μg/ml Kanamycine sulfate at 27° C. in a shaker incubator. After infection with untagged baculovirus expressing human DGAT2 (hDGAT2) at multiplicity of infection (MOI) 3 for 48 hours, cells were harvested. Cell pellets were suspended in buffer containing 10 mM Tris-HCl pH 7.5, 1 mM EDTA, 250 mM sucrose and Complete Protease Inhibitor Cocktail (Sigma Aldrich), and sonicated on ice. Cell debris were removed by centrifugation at 2000×g for 15 minutes. Membrane fractions were isolated by ultracentrifugation (100,000×g), resuspended in the same buffer, and frozen (−80° C.) for later use. The protein concentration was determined with the Pierce™ BCA Protein Assay Kit (Thermo Fisher Scientific).
LC/MS/MS analyses were performed using Thermal Fisher's LX4-TSQ Vantage system. This system consists of an Agilent binary high-performance liquid chromatography (HPLC) pump and a TSQ Vantage triple quadrupole MS/MS instrument. For each sample, 2 μL samples from the top organic layer of in-plate liquid-liquid extraction were injected onto a Thermo Betabasic C4 column (2.1 mm×20 mm, 5 μm particle size). The samples were then eluted using the following conditions; mobile phase: Isopropanol: acetonitrile/10 mM ammonium formate=50/35/15 (v/v/v), flow rate: 0.8 mL/min, temperature: 25° C. Data was acquired in positive mode using a heated electrospray ionization (HESI) interface. […] The peak area was integrated by Xcalibur Quan software. The ratio between the ^13C18triolein generated in the reaction and spiked in internal standard ^13C21-triolein was used to generate percentage inhibition and IC50 values. Compound percentage inhibition was calculated by the following formula: Inhibition %=1−[(compound response−low control)/(high control−low control)]×100%.
DGAT2 activity was determined by measuring the amount of enzymatic product ^13C18-triolein (^13C-1,2,3-Tri(cis-9-octadecenoyl)glycerol) using the membrane prep mentioned above. The assay was carried out in ABgene 384-well assay plates in a final volume of 25 μL at rt.

[1] = 25 μM diolein, 5 μM 13C oleoyl-CoA

Sequence of human DGAT2 (hDGAT2) (Q96PD7 whole entry): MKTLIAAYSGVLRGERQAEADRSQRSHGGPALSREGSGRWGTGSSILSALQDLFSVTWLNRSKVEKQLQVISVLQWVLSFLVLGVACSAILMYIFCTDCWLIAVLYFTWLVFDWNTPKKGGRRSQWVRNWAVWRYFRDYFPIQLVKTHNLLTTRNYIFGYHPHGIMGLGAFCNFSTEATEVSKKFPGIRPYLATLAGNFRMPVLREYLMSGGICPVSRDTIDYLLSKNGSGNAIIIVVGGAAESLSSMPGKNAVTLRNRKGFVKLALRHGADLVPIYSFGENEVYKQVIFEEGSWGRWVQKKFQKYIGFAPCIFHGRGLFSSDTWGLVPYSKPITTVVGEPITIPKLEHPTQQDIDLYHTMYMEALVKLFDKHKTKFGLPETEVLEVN

IC50 [1] [nM]	IC50 (unit given as nm) [nM]	SMILES
> 10000		C[C@]1(NC(=O)[C@@H]2CCc3c(-c4cncc(OC(F)F)n4)nn(-c4ccc(F)cn4)c3C2)CCS(=O)(=O)C1 [Example 19, (R)-3-(6-(difluoromethoxy)pyrazin-2-yl)-1-(5-fluoropyridin-2-yl)-N-((S)-3-methyl-1,1-dioxidotetrahydrothiophen-3-yl)-4,5,6,7-tetrahydro-1H-indazole-6-carboxamide]
56.4		CC(C)n1nc(-c2cccc(OC(F)F)c2)c2c1CC(C(=O)NC1(C)CC(F)(F)C1)CO2 (racemic) [Example 124, N-(3,3-difluoro-1-methylcyclobutyl)-3-(3-(difluoromethoxy)phenyl)-1-isopropyl-1,5,6,7-tetrahydropyrano[3,2-c]pyrazole-6-carboxamide]
30.1		CC(C)n1nc(-c2cc(OC(F)F)ccc2F)c2c1C[C@H](C(=O)N[C@@]1(C)CCS(=O)(=O)C1)CC2 [Example 28, (R)-3-(5-(difluoromethoxy)-2-fluorophenyl)-1-isopropyl-N-((S)-3-methyl-1,1-dioxidotetrahydrothiophen-3-yl)-4,5,6,7-tetrahydro-1H-indazole-6-carboxamide]
65.9		[2H]C([2H])([2H])C([2H])(n1nc(-c2cc(OCC)ncc2F)c2c1C[C@H](C(=O)NC1(C)CCS(=O)(=O)CC1)CC2)C([2H])([2H])[2H] [Example 47, (R)-3-(2-ethoxy-5-fluoropyridin-4-yl)-N-(4-methyl-1,1-dioxidotetrahydro-2H-thiopyran-4-yl)-1-(propan-2-yl-d7)-4,5,6,7-tetrahydro-1H-indazole-6-carboxamide]
90.3		CC(C(F)F)n1nc(-c2cc(OC(F)F)ccc2F)c2c1C[C@H](C(=O)NC1(C)CS(=O)(=O)C1)CC2 (single isomer, unassigned) [Example 48a]
	0.44	CC1(NC(=O)C2COc3c(-c4cccc(OC(F)F)c4)nn(-c4ccc(F)cn4)c3C2)CCS(=O)(=O)C1 (centres unmarked) [Example 118, 3-(3-(difluoromethoxy)phenyl)-1-(5-fluoropyridin-2-yl)-N-(3-methyl-1,1-dioxidotetrahydrothiophen-3-yl)-1,5,6,7-tetrahydropyrano[3,2-c]pyrazole-6-carboxamide]
414		CC(C)n1nc(-c2cncc(OC(F)F)c2)c2c1C[C@H](C(=O)NC1(C)CCS(=O)(=O)CC1)CC2 [Example 56, (R)-3-(5-(difluoromethoxy)pyridin-3-yl)-1-isopropyl-N-(4-methyl-1,1-dioxidotetrahydro-2H-thiopyran-4-yl)-4,5,6,7-tetrahydro-1H-indazole-6-carboxamide]
14.1		CC(C)n1nc(-c2cc(OCC(F)(F)F)ncc2F)c2c1C[C@H](C(=O)NC1(C)CS(=O)(=O)C1)CC2 [Example 43, (R)-3-(5-fluoro-2-(2,2,2-trifluoroethoxy)pyridin-4-yl)-1-isopropyl-N-(3-methyl-1,1-dioxidothietan-3-yl)-4,5,6,7-tetrahydro-1H-indazole-6-carboxamide]
31.6		CC(n1nc(-c2cc(OCC(F)(F)F)ncc2F)c2c1C[C@H](C(=O)N[C@@]1(C)CCS(=O)(=O)C1)CC2)C(C)(C)O (single isomer, unassigned) [Example 112b]
60.1		CC(C)n1nc(-c2cc(OC(F)F)ccc2F)c2c1C[C@H](C(=O)N[C@]1(C)CCS(=O)(=O)C1)CC2 [Example 29, (R)-3-(5-(difluoromethoxy)-2-fluorophenyl)-1-isopropyl-N-((R)-3-methyl-1,1-dioxidotetrahydrothiophen-3-yl)-4,5,6,7-tetrahydro-1H-indazole-6-carboxamide]
172		CCOc1cc(-c2nn(C(C)C(C)(C)O)c3c2CC[C@@H](C(=O)N[C@@]2(C)CCS(=O)(=O)C2)C3)c(F)cn1 (single isomer, unassigned) [Example 108b]
8190		CC(C)n1nc(-c2cccc(OC(F)F)c2)c2c1C[C@H](C(=O)NCc1cccnc1)CC2 [Example 62, (R)-3-(3-(difluoromethoxy)phenyl)-1-isopropyl-N-(pyridin-3-ylmethyl)-4,5,6,7-tetrahydro-1H-indazole-6-carboxamide]
2070		CC(n1nc(-c2cccc(OC(F)F)c2)c2c1C[C@H](C(=O)NC1(C)CCS(=O)(=O)CC1)CC2)C(C)(C)O (single isomer, unassigned) [Example 111a]
139		CC(C)n1nc(-c2cc(OC(F)F)ncc2F)c2c1C[C@H](C(=O)N[C@@]1(C)CCS(=O)(=O)C1)CC2 [Example 41, (R)-3-(2-(difluoromethoxy)-5-fluoropyridin-4-yl)-1-isopropyl-N-((S)-3-methyl-1,1-dioxidotetrahydrothiophen-3-yl)-4,5,6,7-tetrahydro-1H-indazole-6-carboxamide]
	37.9	CC1(NC(=O)C2CCc3c(-c4ccccc4Cl)nn(-c4ccc(F)cc4)c3C2)CCS(=O)(=O)C1 (centres unmarked) [Example 1, 3-(2-chlorophenyl)-1-(4-fluorophenyl)-N-(3-methyl-1,1-dioxidotetrahydrothiophen-3-yl)-4,5,6,7-tetrahydro-1H-indazole-6-carboxamide]
2.5		CC(C1CC1)n1nc(-c2cc(OC(F)F)ccc2F)c2c1C[C@H](C(=O)NC1(C)CS(=O)(=O)C1)CC2 (single isomer, unassigned) [Example 58b]
353		CC(C)n1nc(-c2cccc(OC(F)(F)C(F)F)c2)c2c1C[C@H](C(=O)NC1(C)CCS(=O)(=O)CC1)CC2 [Example 36, (R)-1-isopropyl-N-(4-methyl-1,1-dioxidotetrahydro-2H-thiopyran-4-yl)-3-(3-(1,1,2,2-tetrafluoroethoxy)phenyl)-4,5,6,7-tetrahydro-1H-indazole-6-carboxamide]
24.5		CC(C)Oc1ccc(F)c(-c2nn(C(C)C)c3c2CC[C@@H](C(=O)NC2(C)CS(=O)(=O)C2)C3)c1 [Example 81, (R)-3-(2-fluoro-5-isopropoxyphenyl)-1-isopropyl-N-(3-methyl-1,1-dioxidothietan-3-yl)-4,5,6,7-tetrahydro-1H-indazole-6-carboxamide]
> 10000		C[C@]1(NC(=O)[C@@H]2CCc3c(-c4cccc(OC(F)F)c4)nn(CC4CCOCC4)c3C2)CCS(=O)(=O)C1 [Example 78, (R)-3-(3-(difluoromethoxy)phenyl)-N-((S)-3-methyl-1,1-dioxidotetrahydrothiophen-3-yl)-1-((tetrahydro-2H-pyran-4-yl)methyl)-4,5,6,7-tetrahydro-1H-indazole-6-carboxamide]
5.3		CC(C)n1nc(-c2cc(OCC(F)(F)F)ncc2F)c2c1C[C@H](C(=O)N[C@@]1(C)CCS(=O)(=O)C1)CC2 [Example 44, (R)-3-(5-fluoro-2-(2,2,2-trifluoroethoxy)pyridin-4-yl)-1-isopropyl-N-((S)-3-methyl-1,1-dioxidotetrahydrothiophen-3-yl)-4,5,6,7-tetrahydro-1H-indazole-6-carboxamide]
90		CCC1(NC(=O)[C@@H]2CCc3c(-c4cccc(OC(F)F)c4)nn(C(C)C)c3C2)CS(=O)(=O)C1 [Example 69, (R)-3-(3-(difluoromethoxy)phenyl)-N-(3-ethyl-1,1-dioxidothietan-3-yl)-1-isopropyl-4,5,6,7-tetrahydro-1H-indazole-6-carboxamide]
3.6		CCOc1cc(F)c(F)c(-c2nn(C(C)C)c3c2CC[C@@H](C(=O)NC2(C)CS(=O)(=O)C2)C3)c1 [Example 87, (R)-3-(5-ethoxy-2,3-difluorophenyl)-1-isopropyl-N-(3-methyl-1,1-dioxidothietan-3-yl)-4,5,6,7-tetrahydro-1H-indazole-6-carboxamide]
158		CCc1ccc(F)c(-c2nn(C(C)C)c3c2CC[C@@H](C(=O)NC2(C)CS(=O)(=O)C2)C3)c1 [Example 100, (R)-3-(5-ethyl-2-fluorophenyl)-1-isopropyl-N-(3-methyl-1,1-dioxidothietan-3-yl)-4,5,6,7-tetrahydro-1H-indazole-6-carboxamide]
230		CC(n1nc(-c2cccc(OC(F)F)c2)c2c1C[C@H](C(=O)NC1(C)CCS(=O)(=O)CC1)CC2)C(C)(C)O (single isomer, unassigned) [Example 111b]
26.2		CC(C)n1nc(-c2cc(OC(F)F)ccc2F)c2c1C[C@H](C(=O)NC1(C)CCN(C(=O)C3CC3)C1)CC2 (stereo partly drawn) [Example 61, (6R)-N-(1-(cyclopropanecarbonyl)-3-methylpyrrolidin-3-yl)-3-(5-(difluoromethoxy)-2-fluorophenyl)-1-isopropyl-4,5,6,7-tetrahydro-1H-indazole-6-carboxamide]
5.8		CC(C)n1nc(-c2cc(OC(F)F)ccc2F)c2c1CC(C(=O)N[C@@]1(C)CCS(=O)(=O)C1)CO2 (stereo partly drawn) [Example 122, 3-(5-(difluoromethoxy)-2-fluorophenyl)-1-isopropyl-N-((S)-3-methyl-1,1-dioxidotetrahydrothiophen-3-yl)-1,5,6,7-tetrahydropyrano[3,2-c]pyrazole-6-carboxamide]
